According to PubChem BioAssay AID248 (DTP/NCI, 2004):
Several values for one entry are separate records, joined by “and”; a condition that tells them apart may be missing. Identical values can stand only once. Toxic doses and inconclusive results are not listed. Cut-off read from the data, not from the text of the source: active = T/C of 150% or more; inactive = T/C below 125%.

System: L1210 leukemia ip in BDF1 mice, survival T/C
Assay: NCI In Vivo Anticancer Drug Screen. Data for tumor model L1210 Leukemia (intraperitoneal) in B6D2F1 (BDF1) mice
Conditions: higher = longer survival
Outline: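 Each compound was tested against a transplantable tumor grown in mice. The endpoint was survival, with treated animals benchmarked against vehicle controls as a simple ratio.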

[1] = endpoint: mean survival time, dose: 100.0 mg/kg/injection, schedule: Q04DX003 (ip), vehicle: saline with Tween-80
[2] = endpoint: mean survival time, dose: 200.0 mg/kg/injection, schedule: Q04DX003 (ip), vehicle: saline with Tween-80
[3] = endpoint: mean survival time, dose: 400.0 mg/kg/injection, schedule: Q04DX003 (ip), vehicle: saline with Tween-80
[4] = endpoint: mean survival time, dose: 50.0 mg/kg/injection, schedule: Q01DX009 (ip), vehicle: Klucel (hydroxypropylcellulose) (HPC)
[5] = endpoint: mean survival time, dose: 100.0 mg/kg/injection, schedule: Q01DX009 (ip), vehicle: Klucel (hydroxypropylcellulose) (HPC)
[6] = endpoint: mean survival time, dose: 200.0 mg/kg/injection, schedule: Q01DX009 (ip), vehicle: Klucel (hydroxypropylcellulose) (HPC)
[7] = endpoint: mean survival time, dose: 100.0 mg/kg/injection, schedule: Q01DX009 (ip), vehicle: saline with Tween-80
[8] = endpoint: mean survival time, dose: 200.0 mg/kg/injection, schedule: Q01DX009 (ip), vehicle: saline with Tween-80
[9] = endpoint: mean survival time, dose: 400.0 mg/kg/injection, schedule: Q01DX009 (ip), vehicle: saline with Tween-80

Measured: T/C

CC(Cc1ccccc1)NN (stereo unspecified)
inactive: endpoint: mean survival time, dose: 3.9 mg/kg/injection, schedule: Q01DX009 (ip), vehicle: saline 93 % of control | endpoint: mean survival time, dose: 7.81 mg/kg/injection, schedule: Q01DX009 (ip), vehicle: saline 96 % of control | endpoint: mean survival time, dose: 15.62 mg/kg/injection, schedule: Q01DX009 (ip), vehicle: saline 93 % of control | endpoint: mean survival time, dose: 15.62 mg/kg/injection, schedule: Q04DX003 (ip), vehicle: saline 107 % of control | endpoint: mean survival time, dose: 31.25 mg/kg/injection, schedule: Q04DX003 (ip), vehicle: saline 98 % of control | endpoint: mean survival time, dose: 62.5 mg/kg/injection, schedule: Q04DX003 (ip), vehicle: saline 104 % of control

COc1ccc(CC(=O)NC(N)=O)cc1
inactive: [1] 101 % of control | [2] 97 % of control | [3] 90 % of control

NC(=O)C1=CN(CCc2ccccc2)c2ccccc2C1S(=O)(=O)O (stereo unspecified)
inactive: endpoint: mean survival time, dose: 75.0 mg/kg/injection, schedule: Q01DX001 (ip), vehicle: other 98 % of control | endpoint: mean survival time, dose: 150.0 mg/kg/injection, schedule: Q01DX001 (ip), vehicle: other 94 % of control | endpoint: mean survival time, dose: 300.0 mg/kg/injection, schedule: Q01DX001 (ip), vehicle: other 96 % of control

CC1=CCC(C(C)C)C=C1 (stereo unspecified)
inactive: endpoint: mean survival time, dose: 25.0 mg/kg/injection, schedule: Q01DX009 (ip), vehicle: Klucel (hydroxypropylcellulose) (HPC) 101 % of control | [4] 96 % of control | [5] 102 % of control | endpoint: mean survival time, dose: 100.0 mg/kg/injection, schedule: Q01DX009 (ip), vehicle: saline 93 % of control | endpoint: mean survival time, dose: 100.0 mg/kg/injection, schedule: Q04DX003 (ip), vehicle: saline 96 % of control | [6] 96 % of control | endpoint: mean survival time, dose: 200.0 mg/kg/injection, schedule: Q04DX003 (ip), vehicle: saline 98 % of control | endpoint: mean survival time, dose: 400.0 mg/kg/injection, schedule: Q04DX003 (ip), vehicle: saline 97 % of control

CCCCCCCCC(=O)NCc1ccco1
inactive: [5] 92 % of control | [6] 91 % of control | endpoint: mean survival time, dose: 400.0 mg/kg/injection, schedule: Q01DX009 (ip), vehicle: Klucel (hydroxypropylcellulose) (HPC) 94 % of control

CN(C)Cc1cc(C(C)(C)CC(C)(C)C)cc(CN(C)C)c1O
inactive: [5] 97 % of control | [6] 99 % of control

CCCCC(=O)Nc1cccc(O)c1
inactive: [7] 90 % of control | [8] 93 % of control | [9] 107 % of control

Nc1cc2nc3ccccc3sc-2cc1=O
inactive: endpoint: median survival time, dose: 50.0 mg/kg/injection, schedule: Q01DX001 (ip), vehicle: Klucel (hydroxypropylcellulose) (HPC) 100 % of control | endpoint: median survival time, dose: 50.0 mg/kg/injection, schedule: Q01DX001 (oral), vehicle: Klucel (hydroxypropylcellulose) (HPC) 105 % of control | endpoint: median survival time, dose: 50.0 mg/kg/injection, schedule: Q01DX009 (ip), vehicle: Klucel (hydroxypropylcellulose) (HPC) 102 % of control | endpoint: median survival time, dose: 50.0 mg/kg/injection, schedule: Q01DX009 (oral), vehicle: Klucel (hydroxypropylcellulose) (HPC) 114 % of control | endpoint: median survival time, dose: 50.0 mg/kg/injection, schedule: Q04DX003 (ip), vehicle: Klucel (hydroxypropylcellulose) (HPC) 101 % of control | endpoint: median survival time, dose: 100.0 mg/kg/injection, schedule: Q01DX001 (ip), vehicle: Klucel (hydroxypropylcellulose) (HPC) 93 % of control | endpoint: median survival time, dose: 100.0 mg/kg/injection, schedule: Q01DX001 (oral), vehicle: Klucel (hydroxypropylcellulose) (HPC) 105 % of control | endpoint: median survival time, dose: 100.0 mg/kg/injection, schedule: Q01DX009 (ip), vehicle: Klucel (hydroxypropylcellulose) (HPC) 97 % of control | endpoint: median survival time, dose: 100.0 mg/kg/injection, schedule: Q01DX009 (oral), vehicle: Klucel (hydroxypropylcellulose) (HPC) 114 % of control | endpoint: median survival time, dose: 100.0 mg/kg/injection, schedule: Q04DX003 (ip), vehicle: Klucel (hydroxypropylcellulose) (HPC) 94 % of control | endpoint: median survival time, dose: 200.0 mg/kg/injection, schedule: Q01DX001 (ip), vehicle: Klucel (hydroxypropylcellulose) (HPC) 96 % of control | endpoint: median survival time, dose: 200.0 mg/kg/injection, schedule: Q01DX001 (oral), vehicle: Klucel (hydroxypropylcellulose) (HPC) 106 % of control | endpoint: median survival time, dose: 200.0 mg/kg/injection, schedule: Q01DX009 (ip), vehicle: Klucel (hydroxypropylcellulose) (HPC) 102 % of control | endpoint: median survival time, dose: 200.0 mg/kg/injection, schedule: Q01DX009 (oral), vehicle: Klucel (hydroxypropylcellulose) (HPC) 113 % of control | endpoint: median survival time, dose: 200.0 mg/kg/injection, schedule: Q04DX003 (ip), vehicle: Klucel (hydroxypropylcellulose) (HPC) 101 % of control | endpoint: median survival time, dose: 400.0 mg/kg/injection, schedule: Q01DX001 (ip), vehicle: Klucel (hydroxypropylcellulose) (HPC) 96 % of control | endpoint: median survival time, dose: 400.0 mg/kg/injection, schedule: Q01DX001 (oral), vehicle: Klucel (hydroxypropylcellulose) (HPC) 110 % of control | endpoint: median survival time, dose: 400.0 mg/kg/injection, schedule: Q01DX009 (ip), vehicle: Klucel (hydroxypropylcellulose) (HPC) 97 % of control | endpoint: median survival time, dose: 400.0 mg/kg/injection, schedule: Q01DX009 (oral), vehicle: Klucel (hydroxypropylcellulose) (HPC) 112 % of control | endpoint: median survival time, dose: 400.0 mg/kg/injection, schedule: Q04DX003 (ip), vehicle: Klucel (hydroxypropylcellulose) (HPC) 94 % of control

O=C1/C(=N/O)Cc2ccccc21
inactive: endpoint: mean survival time, dose: 3.13 mg/kg/injection, schedule: Q01DX009 (ip), vehicle: saline with Tween-80 91 % of control | endpoint: mean survival time, dose: 6.25 mg/kg/injection, schedule: Q01DX009 (ip), vehicle: saline with Tween-80 91 % of control | endpoint: mean survival time, dose: 12.5 mg/kg/injection, schedule: Q01DX009 (ip), vehicle: saline with Tween-80 94 % of control | endpoint: mean survival time, dose: 25.0 mg/kg/injection, schedule: Q04DX003 (ip), vehicle: saline with Tween-80 102 % of control | endpoint: mean survival time, dose: 50.0 mg/kg/injection, schedule: Q04DX003 (ip), vehicle: saline with Tween-80 94 % of control

O=C(O)c1cc(Br)c(-c2c(Br)cc(C(=O)O)cc2[N+](=O)[O-])c([N+](=O)[O-])c1
inactive: endpoint: mean survival time, dose: 50.0 mg/kg/injection, schedule: Q01DX001 (ip), vehicle: Klucel (hydroxypropylcellulose) (HPC) 95 % of control | endpoint: mean survival time, dose: 100.0 mg/kg/injection, schedule: Q01DX001 (ip), vehicle: Klucel (hydroxypropylcellulose) (HPC) 106 % of control | endpoint: mean survival time, dose: 200.0 mg/kg/injection, schedule: Q01DX001 (ip), vehicle: Klucel (hydroxypropylcellulose) (HPC) 95 % of control

C1=CC2C3CCC(C3)C2C1 (stereo unspecified)
inactive: endpoint: mean survival time, dose: 50.0 mg/kg/injection, schedule: Q01DX009 (ip), vehicle: saline with Tween-80 96 % of control | [7] 102 % of control and 88 % of control | [1] 98 % of control and 101 % of control | [8] 94 % of control and 108 % of control | [2] 93 % of control and 101 % of control | [9] 95 % of control | [3] 93 % of control and 96 % of control

N#C[S-].N#C[S-].N#C[S-].N#C[S-].[Co]
inactive: endpoint: mean survival time, dose: 5.0 mg/kg/injection, schedule: Q01DX001 (ip), vehicle: saline 96 % of control | endpoint: mean survival time, dose: 10.0 mg/kg/injection, schedule: Q01DX001 (ip), vehicle: saline 104 % of control | endpoint: mean survival time, dose: 20.0 mg/kg/injection, schedule: Q01DX001 (ip), vehicle: saline 106 % of control

CC(C)Oc1ccc(Nc2ccccc2)cc1
inactive: [4] 100 % of control | endpoint: mean survival time, dose: 100.0 mg/kg/injection, schedule: Q01DX001 (ip), vehicle: saline 96 % of control | [5] 99 % of control | endpoint: mean survival time, dose: 200.0 mg/kg/injection, schedule: Q01DX001 (ip), vehicle: saline 107 % of control | [6] 100 % of control | endpoint: mean survival time, dose: 400.0 mg/kg/injection, schedule: Q01DX001 (ip), vehicle: saline 88 % of control

CC1CCC2(O)C3(C)CC4(O)OC2(C1O)C1(O)C3(O)C(OC(=O)c2ccc[nH]2)C(O)(C(C)C)C41C (stereo unspecified)
inactive: endpoint: mean survival time, dose: 0.25 mg/kg/injection, schedule: Q01DX001 (ip), vehicle: carboxymethylcellulose (CMC) 93 % of control

Clc1ccc(C(Cl)c2ccc(Cl)cc2)cc1
inactive: endpoint: mean survival time, dose: 100.0 mg/kg/injection, schedule: Q04DX003 (ip), vehicle: Klucel (hydroxypropylcellulose) (HPC) 105 % of control | endpoint: mean survival time, dose: 200.0 mg/kg/injection, schedule: Q04DX003 (ip), vehicle: Klucel (hydroxypropylcellulose) (HPC) 107 % of control | endpoint: mean survival time, dose: 400.0 mg/kg/injection, schedule: Q04DX003 (ip), vehicle: Klucel (hydroxypropylcellulose) (HPC) 107 % of control
